Tests used:
TG2 = target: T1, TG2 (Homo sapiens, UniProt P21980); test: TG2 interaction and TG2 activity in Caco-2 cells; assay type: cell-based
T1 construct: Immunoprecipitations of endogenous proteins were performed on 500 μg of lysates from Caco-2 cells; host or cells: Caco-2
T1 sequence (P21980 1-687): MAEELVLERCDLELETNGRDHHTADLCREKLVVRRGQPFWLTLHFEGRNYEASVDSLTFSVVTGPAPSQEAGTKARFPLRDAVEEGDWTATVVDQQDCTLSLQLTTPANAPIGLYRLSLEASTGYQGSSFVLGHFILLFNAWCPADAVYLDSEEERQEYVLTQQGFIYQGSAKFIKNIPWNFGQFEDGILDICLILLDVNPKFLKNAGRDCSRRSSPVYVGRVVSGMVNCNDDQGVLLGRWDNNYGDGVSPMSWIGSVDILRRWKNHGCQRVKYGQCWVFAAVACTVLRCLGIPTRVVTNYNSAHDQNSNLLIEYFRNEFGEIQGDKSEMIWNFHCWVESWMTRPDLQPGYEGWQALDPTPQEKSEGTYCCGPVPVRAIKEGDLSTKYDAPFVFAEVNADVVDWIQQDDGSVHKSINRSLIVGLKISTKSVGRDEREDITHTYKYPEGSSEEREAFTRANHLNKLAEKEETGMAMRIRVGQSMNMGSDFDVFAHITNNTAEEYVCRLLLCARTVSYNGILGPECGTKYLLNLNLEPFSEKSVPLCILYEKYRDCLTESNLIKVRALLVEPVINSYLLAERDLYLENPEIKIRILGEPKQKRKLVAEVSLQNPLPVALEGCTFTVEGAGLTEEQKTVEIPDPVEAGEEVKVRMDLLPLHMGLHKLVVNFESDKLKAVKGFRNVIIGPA
Description: (§1) Human colon adenocarcinoma-derived Caco-2 and T84 cells were obtained from the ATCC. Cells were maintained in T25 flask in Modified Eagle Medium (MEM) for Caco-2, or Ham's F12+DMEM (1:1) for T84, supplemented with 10% fetal bovine serum (FBS), 2 mM Glutamine+1% Non Essential Amino Acids (NEAA) and the antibiotics penicillin\streptomycin (100 units/ml) (all reagents from Lonza) (Luciani, A., et al. 2010. Cells were grown in Transwells (Corning, 3470 or 3460) under the normal condition (Luciani, A., et al. 2012). Briefly, 8×10^4 or 5×10^5 cells were seeded in 6.5-mm diameter or 12-mm diameter, respectively, and grown until the RT reached 800 to 1,200 Ω·cm2. Transwells with a pore size of 0.4 μm were used. Medium in both the apical and basolateral chambers was changed every other day. Cells were treated with 20 μg/ml of either α-gliadin peptide P31-43 or […] or scrambled PGAV or modified P31-43 either biotin-tagged or not, for different time point (from 1 h short challenge up to 24 h). Cells were also treated with 50 or 100 μg/ml of P57-68 or PGAV peptides for 3 h. Caco-2 or T84 cells were also treated with: CFTR potentiators VX-770 (10 μM) or VX-532 (20 μM) (Selleck chemicals) or Genistein (10 μM) (Sigma-Aldrich) or in presence or absence of CFTR inhibitor172 (CFTRinh172, 20 μM) or 3-methyl-adenine (3-MA, 20 μM) (Calbiochem), Z-DON (20 nM, Zedira) or BAPTA-AM (10 μM, Calbiochem).
(§2) The whole lysate or membrane fraction proteins of cell lines and mice intestine homogenates were obtained from treated and untreated cells or mice as described. The equal amount of protein were resolved by SDS-PAGE gel and blotted with antibodies against: SQSTM1, (Sigma Aldrich, 108k4767) 1:1000, PPARγ (Santa Cruz Biotechnology, sc7273) 1:500, BECN1 (Abcam, ab58878) 1:1000, CFTR clone M3A7 (Abcam, ab4067) 1:500, phospho-ERK1/2 (php42/44, Cell Signaling Technology, #91101) 1:1000, UVRAG (Santa Cruz Biotechnology sc8215) 1:1000, NHERF-1 (BD, 611161) 1:1000, EZRIN (BD, 610603) 1:1000, hVps34 (SigmaV9764) 1:300, biotin (Abcam, ab1227) 1:2000, PKAr2a (BD, 610625) 1:500, Ubiquitin (Cell Signaling clone P4D1, #3936) 1:1000, CHIP (Calbiochem PC711) 1:500, Caspase-1 p10 (M-20) (Santa Cruz Biotechnology, sc-514) 1:200, NLRP3 (Abcam, ab4207), 1:500, IDO1 (monoclonal; cv152) 1:1000^[80], used as primary antibodies. Normalization was performed by probing the membrane with anti-β-actin (Cell Signaling, #4970) 1:1000, anti-Gapdh (Sigma-Aldrich, G8795) 1:1000 and anti-flottilin (Abcam ab15148) 1:1000 antibodies. Immunoprecipitations of endogenous proteins were performed on 500 μg of lysates from Caco-2 cells. The proteins were incubated for 12-18 h at 4° C. with 10 ug\ml of specific antibody followed by the addition of Protein A/G-agarose beads for 4 h at 4° C. The beads were then washed three times with lysis buffer and Laemmli's sample buffer was added to the samples. The membranes were then blotted with: CFTR clone CF3 (Abcam, ab2784) 1:1000, TG2 (clone CUB7402; NeoMarkers) 1:1000, CHIP (Calbiochem PC711) 1:500, Ubiquitin (Cell Signaling clone P4D1 3936), isopeptide (Abcam 422) 1:1000, PKAR2 (BD 610625) 1:500.
For detection of complex with biotnylated-P31-43 or immune-complex of glutamime-lysine bonds, the beads were resolved in non-reducing and non-denaturating conditions, and then blotted with Streptavidin-HRP (Sigma 52438) 1:3000 or anti-biotin (Abcam ab2103) 1:2500 and anti-isopeptide (Abcam 422) 1:1000.
TG2 enzymatic activity in Caco-2, treated as described above, was detected: 1) by incubating unfixed sections with biotin-mono-dansylcadaverine (MDC, 10 mM, Molecular Probe) for 1 h at room temperature and then stained with Alexa-fluor488-Streptavidin, as previously described (JI2008/2009) or 2) or by incorporation of 5(biotinamido)pentylamines (BAP) into protein substrates. For BAP-incorporation, 2 mM BAP (Soltec Ventures, B110) were directly added into the medium together with the indicated treatments. […]

Caco-2 cells = test: Endosomal trafficking proteins in Caco-2 cells (immunoblot, endosomal fractions); assay type: cell-based, human
Description: as §1
as §2, with “The beads were then washed three times with lysis buffer and Laemmli's sample buffer was added to the samples. The membranes were then blotted with: CFTR clone CF3 (Abcam, ab2784) 1:1000, TG2 (clone CUB7402; NeoMarkers) 1:1000, CHIP (Calbiochem PC711) 1:500, Ubiquitin (Cell Signaling clone P4D1 3936), isopeptide (Abcam 422) 1:1000, PKAR2 (BD 610625) 1:500.” left out

| Molecule | effect on P31-43-induced interaction of TG2 and CFTR (TG2; Caco-2 cells) | effect on P31-43-induced TG2 activation (TG2; Caco-2 cells preincubated with VX-770) | impact on TG2-mediated transamidation reactions (TG2; Caco-2 cells pulsed with Ca2+) | effect on P31-43-induced reduction of BECN1, hVps34, UVRAG, Rab5 and Rab7 (Caco-2 cells; lost if 3-MA or CFTR inhibitor added) | TG2-mediated glutamine-lysine bonds in CFTR immunoprecipitates (TG2; Caco-2 cells) | covalent interaction with TG2 (TG2; Caco-2 cells, shortly upon challenge) | interaction between TG2 and CFTR by co-immunoprecipitation (TG2; cells incubated with peptide) | Rab5 and Rab7 levels in endosomal protein fractions (Caco-2 cells) | total cellular abundance of BECN1, hVps34 and UVRAG (Caco-2 cells) |
| --- | --- | --- | --- | --- | --- | --- | --- | --- | --- |
| CC(C)(C)c1cc(C(C)(C)C)c(NC(=O)c2c[nH]c3ccccc3c2=O)cc1O [VX-770, N-(2,4-di-tert-butyl-5-hydroxyphenyl)-4-oxo-1,4-dihydroquinoline-3-carboxamide] | abolished the P31-43-induced interaction of TG2 and CFTR | negated the capability of P31-43 5 to induce TG2 activation | has no impact on TG2mediated transamidation reactions | counteracted | – | – | – | – | – |
| α-gliadin peptide LGQQQPFPPQQPY (SEQ ID 1), induces an enterocyte stress response (P31-43 sequence of alpha-gliadin) | – | – | – | – | induced the formation of TG2-mediated glutamime-lysine bonds | covalently interacted with TG2 | stimulated the interaction between TG2 and CFTR | decreased | reduced the total cellular abundance |
